Measured values published in patent US7273723B2, “Antibiotic-based gene regulation system” (priority 2001, dated 2007).

Tests used:
[1] = system: PSV40 or PhCMV-driven SEAP expression constructs; assay: SEAP expression from constitutive PSV40 or PhCMV-driven constructs with erythromycin; assay type: cell-based; details: data not shown
[2] = system: MphR(A) or MphR(A)-NLS / plant promoters PETRpON4, PETRpON8; assay: EpON erythromycin-inducible GUS expression in Nicotiana tabacum SR1 suspension cells; assay type: cell-based; details: 250 μg/ml erythromycin
Protocol: The transformation protocol of SR1 cells was adapted from Wu and Feng (1999, Plant Cell Reports 18: 381-386). In brief, 200 mg of exponentially growing SR1 cells were harvested by centrifugation. The cells were incubated for 15 min. in 2% DMSO and washed twice in fresh medium. Cells were subsequently resuspended in electroporation buffer (5 mM CaCl2; 10 mM NaCl2; 0.4 M sucrose; 8.7% glycerol; 4 mM ascorbate; 10 mM HEPES; pH 6.8) and mixed with desired DNA at a concentration of 0.2 μg/μl. The cell-DNA mixture was incubated for 10 min. on ice electroporated at 700 V/cm and 980 μF using a BioRad Gene Pulser and appropriate cuvettes. Following electroporation, cells were kept on ice for 10 min. and deplasmolyzed by 4 subsequent additions of 100 μl LS medium at 5 min. intervals. Transformation rates 20%±5% are typically reached with SR1 cells using this modified protocol.
Transformed SR1 cells were incubated at 25° C. for 48 h while rocking at 110 rpm. […] Cells were lysed in extraction buffer (50 mM NaH2PO4; 10 mM EDTA; 0.1% Triton X-100; 0.1% sodium lauryl sarcosine; 10 mM β-mercaptoethanol; pH 7.0) by freezing them in liquid nitrogen and grinding them using a micropestle. Soluble protein extract was collected by centrifugation for 20 min. at 15,000 rpm and 4° C. Protein concentration of plant extracts was determined using a Bradford assay (Bradford, 1976, Anal. Biochem. 72: 248-254). The GUS expression assay was performed following a modified protocol by Jefferson et al. (1987; EMBO J. 6: 3901-3907). In brief, 100 μl of cell extract were incubated in extraction buffer (see above) also containing 1 mM of the β-glucuronidase substrate 4-methylumbelliferyl glucuronide (MUG; Duchefa, NL). The reaction mixture was incubated at 37° C. and 100 μl aliquots were removed at appropriate time intervals and the reaction stopped by addition of 1.9 ml of 0.2 M K2CO3. The fluorescence time course was determined using typical 365 nm/455 nm excitation/emission profiles and a Shimadzu RF-5001 PC spectrofluorophotometer.
For regulated expression in transgenic plants and plant tissue culture an inducible rather than a repressible gene regulation system would be desirable. This enables induction of transgene […] by addition of the antibiotic rather than by its withdrawal. We therefore constructed an erythromycin-inducible plant gene regulation system (EpON) which consisted of the E. coli MphR(A) repressor protein (SEQ ID NO: 4) which binds, in the absence of macrolide antibiotics, to the ETR binding module cloned downstream of a strong constitutive plant promoter (PCaMV35S). Binding of MphR(A) to the ETR module blocks PCaMV35S-mediated target gene expression. […]

CC[C@H]1OC(=O)[C@H](C)[C@@H](O[C@H]2C[C@@](C)(OC)[C@@H](O)[C@H](C)O2)[C@H](C)[C@@H](O[C@@H]2O[C@H](C)C[C@H](N(C)C)[C@H]2O)[C@](C)(O)C[C@@H](C)C(=O)[C@H](C)[C@@H](O)[C@]1(C)O [Erythromycin]
Influence on expression levels of PSV40 or PhCMV-driven SEAP expression constructs [1]: no influence | GUS activity upon addition of erythromycin ([2]; pBP8/pBP15 (MphR(A)-NLS / PETRpON4)): 313.5±39.6 pmoles 4-MU min^−1 mg^−1 protein^−1 | GUS activity upon addition of erythromycin ([2]; pBP8/pBP35 (MphR(A)-NLS / PETRpON8)): 283.6±24.7 pmoles 4-MU min^−1 mg^−1 protein^−1 | GUS activity upon addition of erythromycin ([2]; pBP9/pBP15 (MphR(A) / PETRpON4)): 305.2±24.9 pmoles 4-MU min^−1 mg^−1 protein^−1 | GUS activity upon addition of erythromycin ([2]; pBP9/pBP35 (MphR(A) / PETRpON8)): 276.7±34.1 pmoles 4-MU min^−1 mg^−1 protein^−1
